Results reported in article PMC8523698, “Preclinical characterization of an intravenous coronavirus 3CL protease inhibitor for the potential treatment of COVID19” (Nature Communications, 2021).
Where “and” joins values, the source holds several entries; their conditions need not be identical. Equal entries are not always repeated.

Key:
[1] = system: SARS-CoV-2 Belgium/GHB-03021/2020 strain; test: microbe, parasite or virus in culture; assay type: cell-based; details: Severe acute respiratory syndrome coronavirus 2
CYP3A4/5 = test: in vitro; details: human, microsomes, pH 7.4, Percent of Control Activity
[2] = system: Salmonella typhimurium strains and E. coli strain WP2 uvrA; test: Bacterial reverse mutation assay; details: with and without metabolic activation
CYP2C8 = biological target: T1, CYP2C8 (Homo sapiens, UniProt P10632); test: Reversible CYP inhibition in human liver microsomes
T1 sequence (P10632 1-490): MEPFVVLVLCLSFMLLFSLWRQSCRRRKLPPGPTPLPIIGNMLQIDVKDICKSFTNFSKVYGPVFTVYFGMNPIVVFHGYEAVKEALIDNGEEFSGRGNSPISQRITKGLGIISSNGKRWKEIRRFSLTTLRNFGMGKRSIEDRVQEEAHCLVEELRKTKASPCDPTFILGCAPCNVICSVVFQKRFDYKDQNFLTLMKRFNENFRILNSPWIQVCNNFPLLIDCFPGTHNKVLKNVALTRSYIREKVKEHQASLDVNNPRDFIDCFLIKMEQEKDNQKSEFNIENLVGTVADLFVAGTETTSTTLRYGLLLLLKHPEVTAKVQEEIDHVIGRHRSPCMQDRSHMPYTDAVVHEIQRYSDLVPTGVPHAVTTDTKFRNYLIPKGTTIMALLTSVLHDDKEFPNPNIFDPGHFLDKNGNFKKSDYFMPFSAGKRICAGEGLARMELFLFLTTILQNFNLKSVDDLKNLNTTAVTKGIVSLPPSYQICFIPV

[3] = CYP 3A4/5 (mdz), 30-Minute Preincubation
[4] = CYP 3A4/5 (mdz), Zero-Minute Preincubation
[5] = CYP 3A4/5 (tst), 30-Minute Preincubation
[6] = CYP 3A4/5 (tst), Zero-Minute Preincubation

## COc1cccc2[nH]c(C(=O)N[C@@H](CC(C)C)C(=O)N[C@@H](C[C@@H]3CCNC3=O)C(=O)CO)cc12 [PF-00835231]
[1]
  EC90: 1600 nM
CYP3A4/5; CYP 3A4/5 (mdz), 0.1 µM, 30-Minute Preincubation
  activity at 0.1 µM: 97.8%
CYP3A4/5; CYP 3A4/5 (mdz), 0.1 µM, Zero-Minute Preincubation
  activity at 0.1 µM: 95.2%
CYP3A4/5; CYP 3A4/5 (mdz), 0.214 µM, 30-Minute Preincubation
  activity at 0.214 µM: 121%
CYP3A4/5; CYP 3A4/5 (mdz), 0.214 µM, Zero-Minute Preincubation
  activity at 0.214 µM: 98.7%
CYP3A4/5; CYP 3A4/5 (mdz), 0.979 µM, 30-Minute Preincubation
  activity at 0.979 µM: 99.8%
CYP3A4/5; CYP 3A4/5 (mdz), 0.979 µM, Zero-Minute Preincubation
  activity at 0.979 µM: 95.5%
CYP3A4/5; CYP 3A4/5 (mdz), 2.09 µM, 30-Minute Preincubation
  activity at 2.09 µM: 99.7%
CYP3A4/5; CYP 3A4/5 (mdz), 2.09 µM, Zero-Minute Preincubation
  activity at 2.09 µM: 97.6%
CYP3A4/5; [3]
  activity at 4.48 µM: 101%
  activity at 20.5 µM: 88.2%
  activity at 43.8 µM: 77.3%
  activity at 93.5 µM: 64.9%
CYP3A4/5; [4]
  activity at 4.48 µM: 110%
  activity at 20.5 µM: 108%
  activity at 43.8 µM: 101%
  activity at 93.5 µM: 107%
  activity at 200 µM: 104%
CYP3A4/5; CYP 3A4/5 (tst), 0.1 µM, 30-Minute Preincubation
  activity at 30 min, 0.1 µM: 87.1%
CYP3A4/5; CYP 3A4/5 (tst), 0.1 µM, Zero-Minute Preincubation
  activity at 0.1 µM: 103%
CYP3A4/5; CYP 3A4/5 (tst), 0.214 µM, Zero-Minute Preincubation
  activity at 0 min, 0.214 µM: 102%
CYP3A4/5; CYP 3A4/5 (tst), 0.979 µM, 30-Minute Preincubation
  activity at 30 min, 0.979 µM: 97.6%
CYP3A4/5; CYP 3A4/5 (tst), 2.09 µM, Zero-Minute Preincubation
  activity at 0 min, 2.09 µM: 98.1%
CYP3A4/5; [5]
  activity at 4.48 µM: 101%
  activity at 20.5 µM: 83.2%
  activity at 43.8 µM: 55.5%
  activity at 200 µM: 24.3%
CYP3A4/5; [6]
  activity at 20.5 µM: 75.8%
  activity at 43.8 µM: 79.9%
  activity at 93.5 µM: 74.9%
[2]
  bacterial reverse mutation assay result: negative
CYP2C8; CYP 2C8, 0.1 µM, 30-Minute Preincubation, 0.1 µM
  Percent of Control Activity: 98.0% and 103.9%
CYP2C8; CYP 2C8, 0.1 µM, Zero-Minute Preincubation, 0.1 µM
  Percent of Control Activity: 104.8% and 112.8%
CYP2C8; CYP 2C8, 0.214 µM, 30-Minute Preincubation, 0.214 µM
  Percent of Control Activity: 93.1% and 90.6%
CYP2C8; CYP 2C8, 0.214 µM, Zero-Minute Preincubation, 0.214 µM
  Percent of Control Activity: 107.5% and 109.2%
CYP2C8; CYP 2C8, 0.979 µM, 30-Minute Preincubation, 0.979 µM
  Percent of Control Activity: 105.7% and 92.9%
CYP2C8; CYP 2C8, 2.09 µM, 30-Minute Preincubation, 2.09 µM
  Percent of Control Activity: 93.9% and 94.5%
CYP2C8; CYP 2C8, 2.09 µM, Zero-Minute Preincubation, 2.09 µM
  Percent of Control Activity: 100.1% and 105.9%
CYP2C8; CYP 2C8, 4.48 µM, 30-Minute Preincubation, 4.48 µM
  Percent of Control Activity: 91.6% and 90.7%
CYP2C8; CYP 2C8, 4.48 µM, Zero-Minute Preincubation, 4.48 µM
  Percent of Control Activity: 107.2% and 107.1%
CYP2C8; CYP 2C8, 20.5 µM, 30-Minute Preincubation, 20.5 µM
  Percent of Control Activity: 94.2% and 94.7%
CYP2C8; CYP 2C8, 20.5 µM, Zero-Minute Preincubation, 20.5 µM
  Percent of Control Activity: 95.8% and 108.3%
CYP2C8; CYP 2C8, 43.8 µM, 30-Minute Preincubation, 43.8 µM
  Percent of Control Activity: 90.3%
CYP2C8; CYP 2C8, 43.8 µM, Zero-Minute Preincubation, 43.8 µM
  Percent of Control Activity: 96.9% and 95.4%
CYP2C8; CYP 2C8, 93.5 µM, 30-Minute Preincubation, 93.5 µM
  Percent of Control Activity: 68.7% and 77.7%
CYP2C8; CYP 2C8, 93.5 µM, Zero-Minute Preincubation, 93.5 µM
  Percent of Control Activity: 87.1% and 95.1%
CYP2C8; CYP 2C8, 200 µM, 30-Minute Preincubation, 200 µM
  Percent of Control Activity: 65.4% and 64.5%
CYP2C8; CYP 2C8, 200 µM, Zero-Minute Preincubation, 200 µM
  Percent of Control Activity: 78.5% and 82.2%
CYP2C8; human, microsomes, pH 7.4
  IC50: > 200000 nM
CYP2C8; human, microsomes, pH 7.4, Percent of Control Activity, CYP 2C8, 0.1 µM, 30-Minute Preincubation
  activity at 0.1 µM: 97.4%
CYP2C8; human, microsomes, pH 7.4, Percent of Control Activity, CYP 2C8, 0.1 µM, Zero-Minute Preincubation
  activity at 0.1 µM: 99.7%
CYP2C8; human, microsomes, pH 7.4, Percent of Control Activity, CYP 2C8, 0.214 µM, 30-Minute Preincubation
  activity at 0.214 µM: 91%
CYP2C8; human, microsomes, pH 7.4, Percent of Control Activity, CYP 2C8, 0.214 µM, Zero-Minute Preincubation
  activity at 0.214 µM: 103%
CYP2C8; human, microsomes, pH 7.4, Percent of Control Activity, CYP 2C8, 0.979 µM, 30-Minute Preincubation
  activity at 0.979 µM: 98.3%
CYP2C8; human, microsomes, pH 7.4, Percent of Control Activity, CYP 2C8, 0.979 µM, Zero-Minute Preincubation
  activity at 0.979 µM: 108%
CYP2C8; human, microsomes, pH 7.4, Percent of Control Activity, CYP 2C8, 2.09 µM, 30-Minute Preincubation
  activity at 2.09 µM: 92.8%
CYP2C8; human, microsomes, pH 7.4, Percent of Control Activity, CYP 2C8, 2.09 µM, Zero-Minute Preincubation
  activity at 2.09 µM: 110%
CYP2C8; human, microsomes, pH 7.4, Percent of Control Activity, CYP 2C8, 4.48 µM, 30-Minute Preincubation
  activity at 4.48 µM: 85.8%
CYP2C8; human, microsomes, pH 7.4, Percent of Control Activity, CYP 2C8, 4.48 µM, Zero-Minute Preincubation
  activity at 4.48 µM: 104%
CYP2C8; human, microsomes, pH 7.4, Percent of Control Activity, CYP 2C8, 20.5 µM, 30-Minute Preincubation
  activity at 20.5 µM: 86%
CYP2C8; human, microsomes, pH 7.4, Percent of Control Activity, CYP 2C8, 20.5 µM, Zero-Minute Preincubation
  activity at 20.5 µM: 93.6%
CYP2C8; human, microsomes, pH 7.4, Percent of Control Activity, CYP 2C8, 43.8 µM, 30-Minute Preincubation
  activity at 43.8 µM: 82.6%
